Measurements reported in ChEMBL document CHEMBL2203181, “Microwave-assisted synthesis, molecular docking and antitubercular activity of 1,2,3,4-tetrahydropyrimidine-5-carbonitrile derivatives” (2012).

Assays:
Format in all cases: functional
Design in all cases: scale not given: the % may be the effect or the level left
[1] = test system: Mycobacterium tuberculosis; assay: Antitubercular activity against streptomycin, isoniazid, rifampicin,ethambutol-resistant Mycobacterium tuberculosis clinical isolate assessed as reduction in RLU at 500 ug/mL after 72 hrs by luciferase reporter phage assay
[2] = test system: Mycobacterium tuberculosis; assay: Antitubercular activity against streptomycin, isoniazid, rifampicin,ethambutol-resistant Mycobacterium tuberculosis clinical isolate assessed as reduction in RLU at 100 ug/mL after 72 hrs by luciferase reporter phage assay
[3] = test system: Mycobacterium tuberculosis; assay: Antitubercular activity against streptomycin, isoniazid, rifampicin,ethambutol-resistant Mycobacterium tuberculosis clinical isolate assessed as reduction in RLU at 2 ug/mL after 72 hrs by luciferase reporter phage assay
[4] = test system: Mycobacterium tuberculosis; assay: Antitubercular activity against streptomycin, isoniazid, rifampicin,ethambutol-resistant Mycobacterium tuberculosis clinical isolate assessed as reduction in RLU at 0.5 ug/mL after 72 hrs by luciferase reporter phage assay

| SMILES | Activity [1] [%] | Activity [2] [%] | Activity [3] [%] | Activity [4] [%] |
| --- | --- | --- | --- | --- |
| COc1ccc(-c2[nH]c(=O)[nH]c(=O)c2C#N)cc1O | 33.49 | 25.47 |  |  |
| N#Cc1c(-c2ccc(Cl)cc2)[nH]c(=S)[nH]c1=O | 66.65 | 61.35 |  |  |
| N#Cc1c(-c2cccc(Cl)c2)[nH]c(=O)[nH]c1=O | 52.77 | 50.1 |  |  |
| N#Cc1c(-c2ccc(Br)cc2)[nH]c(=S)[nH]c1=O | 74.91 | 38.03 |  |  |
| CO[C@H]1/C=C/O[C@@]2(C)Oc3c(C)c(O)c4c(O)c(c(/C=N/N5CCN(C)CC5)c(O)c4c3C2=O)NC(=O)/C(C)=C\C=C\[C@H](C)[C@H](O)[C@@H](C)[C@@H](O)[C@@H](C)[C@H](OC(C)=O)[C@@H]1C [RIFAMPIN] |  |  | 29.19 |  |
| N#Cc1c(-c2ccc(F)cc2)[nH]c(=O)[nH]c1=O | 47.86 | 38.38 |  |  |
| NNC(=O)c1ccncc1 [ISONIAZID] |  |  |  | 89.6 |
